Assay results taken from PubChem BioAssay (NCI).
Values joined by “and” are separate entries in the source; they are usually repeats but may differ in a detail not shown here. Equal values may be shown once.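 1) Cells in 96-well plates. 2) Compound, 48 h, 5 concentrations. 3) Linear interpolation between surrounding doses. 4) Unreached endpoint = highest concentration. Here, GI50 denotes the concentration required for 50% inhibition of growth. At the TGI there is no net growth.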

Key:
Test in all cases: NCI-60 cell line screen, 48 h
SK-OV-3 ovarian = tested on: SK-OV-3 ovarian
IGROV1 ovarian = tested on: IGROV1 ovarian
SNB-75 CNS = tested on: SNB-75 CNS
UACC-257 melanoma = tested on: UACC-257 melanoma
LOX IMVI melanoma = tested on: LOX IMVI melanoma
HCT-15 colon = tested on: HCT-15 colon
RXF 393 renal = tested on: RXF 393 renal
786-0 renal = tested on: 786-0 renal
UACC-62 melanoma = tested on: UACC-62 melanoma
CCRF-CEM leukemia = tested on: CCRF-CEM leukemia

Structure (SMILES) | GI50 (SK-OV-3 ovarian) | TGI (SK-OV-3 ovarian) | GI50 (IGROV1 ovarian) | TGI (IGROV1 ovarian) | GI50 (SNB-75 CNS) | TGI (SNB-75 CNS) | GI50 (UACC-257 melanoma) | TGI (UACC-257 melanoma) | GI50 (LOX IMVI melanoma) | TGI (LOX IMVI melanoma) | GI50 (HCT-15 colon) | TGI (HCT-15 colon) | GI50 (RXF 393 renal) | TGI (RXF 393 renal) | GI50 (786-0 renal) | TGI (786-0 renal) | GI50 (UACC-62 melanoma) | TGI (UACC-62 melanoma) | GI50 (CCRF-CEM leukemia) | TGI (CCRF-CEM leukemia)
CS(=O)(=O)CCNCc1coc(-c2ccc3ncnc(Nc4ccc(OCc5ccccc5)cc4)c3c2)c1 | 1.71 µM | > 16.2 µM | 3.7 µM | > 20.7 µM | 3.92 µM | 10 µM | 3.67 µM | 7.39 µM | 4.27 µM | 8.81 µM | 4.15 µM | 9.53 µM | 2.91 µM | 7.27 µM | 4.16 µM | 9.12 µM | 4.31 µM | 8.18 µM | 4.92 µM | 14.5 µM
COc1cccc2c1C(=N)c1c(O)c3c(c(O)c1C2=O)C[C@@](O)(C(C)=O)C[C@@H]3O[C@H]1C[C@H](N)[C@H](O)[C@H](C)O1 | 0.288 µM | 2.6 µM | 0.645 µM | 6.25 µM | 0.159 µM | 2.08 µM | 1.34 µM | 8.99 µM | 0.178 µM | 1.49 µM | 2.53 µM | 18.2 µM | – | 3.58 µM | 0.254 µM | 4.28 µM | 0.248 µM | 1.79 µM | 0.0829 µM | 3.76 µM
O=C1C=CC(=O)C2C1C1(Cl)C(Cl)=C(Cl)C2(Cl)C1(Cl)Cl (stereo unspecified) | 7.85 µM | 21.1 µM | 2.92 µM | 19.2 µM | 1.13 µM | 5.48 µM | 6.82 µM | 20 µM | 4.05 µM | 16.2 µM | 4.11 µM | 22.4 µM | 3.66 µM | 12 µM | 12.5 µM | 30.1 µM | 5.19 µM | 19.2 µM | 3.76 µM | > 100 µM
Cc1ccc(C)c(NC(=O)CC2Sc3ccccc3NC2=O)c1 (stereo unspecified) | – | 38.3 µM and 48.3 µM | – | 36.6 µM and > 76.3 µM | – | 18.8 µM and 29.8 µM | – | > 97.1 µM | 34.5 µM and > 81.5 µM | > 100 µM | – | > 100 µM | 6.39 µM and 14 µM | 12.8 µM and 28.4 µM | – | 30.7 µM and 58.6 µM | – | > 100 µM | – | > 100 µM
O=C1C=C(Nc2ccccc2C(=O)CC(=O)C(=O)Nc2cccc([N+](=O)[O-])c2)c2ccccc2C1=O | – | > 100 µM | – | > 100 µM | – | > 100 µM | – | 78.5 µM | – | 23.1 µM | – | > 100 µM | – | > 100 µM | – | > 100 µM | – | 86.8 µM | – | 87.8 µM
Nc1ncc(-c2cnn(C3CCNCC3)c2)cc1-c1nc2cc(Cl)ccc2o1 | 1.76 µM | 3.22 µM | 1.04 µM | 2.43 µM | 1.65 µM | 3.06 µM | 1.29 µM | 2.59 µM | 1.55 µM | 3.07 µM | 0.495 µM | 1.71 µM | 1.55 µM | 2.92 µM | 1.71 µM | 3.16 µM | 1.96 µM | 3.65 µM | 0.222 µM | 0.541 µM
Nc1n[nH]c2cccc(C#Cc3cccc(NC(=O)c4cccc(C(F)(F)F)c4)c3)c12 | 3.19 µM | 10.2 µM | 1.53 µM | 4.31 µM | 2.79 µM | 18.6 µM | 4.3 µM | 15.8 µM | 1.53 µM | 3.41 µM | 2.92 µM | 13.6 µM | 1.65 µM | 3.97 µM | 3.03 µM | 8.74 µM | 2.54 µM | 11.4 µM | 2.69 µM | 15.9 µM
CCCCCCCCCCCCCCCCCCOC[C@H](COP(=O)(O)O[C@H]1[C@H](O)[C@@H](O)[C@H](O)C[C@H]1O)OC | > 100 µM and 17.4 µM | > 100 µM and 34 µM | 21.9 µM and 3.28 µM | 60.6 µM and 13.5 µM | – | 59.6 µM and 27.9 µM | > 100 µM and 17 µM | > 100 µM and 31.5 µM | 47.1 µM and 13.4 µM | > 100 µM and 27.3 µM | 37.2 µM and 14.3 µM | > 100 µM and 28.9 µM | 35.4 µM and 5.76 µM | > 100 µM and 21.1 µM | > 100 µM and 15.9 µM | > 100 µM and 57.8 µM | > 100 µM and 16.4 µM | > 100 µM and 30.1 µM | – | 12.7 µM and 46 µM
Cc1cn(-c2cc(NC(=O)c3cccc(C#Cc4cccc5[nH]nc(N)c45)c3)cc(C(F)(F)F)c2)cn1 | 22.2 µM | > 100 µM | 5.29 µM | 83.2 µM | 2.19 µM | 9.02 µM | 6.59 µM | 78.3 µM | 2.87 µM | > 100 µM | 4.49 µM | > 100 µM | 5.1 µM | 21.6 µM | 4.72 µM | 20.6 µM | 2.54 µM | 12.7 µM | 4.88 µM | > 100 µM
Cc1ccc(S(=O)(=O)OC2CC=CC2)cc1 | – | > 100 µM | – | > 100 µM | – | > 100 µM | – | > 100 µM | – | > 100 µM | – | > 100 µM | – | > 100 µM | – | > 100 µM | – | > 100 µM | – | > 100 µM
NC1=NN(c2ccccc2)C(=O)C1C(=O)CCC(=O)Nc1cccc(Cl)c1 (stereo unspecified) | – | > 100 µM | – | > 100 µM | – | > 100 µM | – | > 100 µM | – | > 100 µM | – | > 100 µM | – | > 100 µM | – | > 100 µM | – | > 100 µM | – | > 100 µM
CC(C)C(O)(C(C)C)C(C)C | – | > 100 µM | – | > 100 µM | – | > 100 µM | – | > 100 µM | – | > 100 µM | – | > 100 µM | – | > 100 µM | – | > 100 µM | – | > 100 µM | – | > 100 µM
O=C(Oc1ccc[nH]c1=O)c1cc([N+](=O)[O-])cc([N+](=O)[O-])c1 | > 100 µM | > 100 µM | > 100 µM | > 100 µM | > 100 µM | > 100 µM | > 100 µM | > 100 µM | > 100 µM | > 100 µM | 81 µM | > 100 µM | > 100 µM | > 100 µM | > 100 µM | > 100 µM | 20.9 µM | > 100 µM | 79 µM | > 100 µM
COc1ccc(NC(=O)CC/C(CC(=O)c2ccco2)=N/NC(=O)C(N)=O)cc1 | – | > 100 µM | – | > 100 µM | – | > 100 µM | – | > 100 µM | – | > 100 µM | – | > 100 µM | – | > 100 µM | – | > 100 µM | – | > 100 µM | – | > 100 µM
CNC(=O)OCc1nc(SSC(C)(C)C)n(C)c1COC(=O)NC | – | 31.1 µM | – | 22.9 µM | – | 22.4 µM | – | 7.64 µM | – | 8.61 µM | – | 4.14 µM | – | 2.84 µM | – | 9.12 µM | – | 5.09 µM | – | 4.54 µM
O=C(NC(=O)c1c(F)cccc1F)Nc1cccc(Oc2ncc(Cl)cn2)c1 | – | > 93.3 µM | – | > 100 µM | – | 60.3 µM | – | > 100 µM | – | > 100 µM | – | > 100 µM | – | 79.5 µM | – | > 100 µM | – | > 100 µM | – | > 100 µM
Cc1cc(N(CC(C)Br)CC(C)Br)ccc1N=Nc1ccccc1C(=O)O (stereo unspecified) | – | 39.7 µM | – | 24.2 µM | – | 11.2 µM | – | 19 µM | – | 31.9 µM | – | 29 µM | – | 4.3 µM | – | 16.4 µM | – | 3.4 µM | – | > 94.1 µM
N[C@H](C(=O)O)[C@@H]1CC(Cl)=NO1 | 34.5 µM | > 584 µM | 4.41 µM | 465 µM | – | > 1000 µM | 84.8 µM | > 1000 µM | 3.28 µM | > 1000 µM | 8.33 µM | > 912 µM | – | 718 µM | – | > 1000 µM | 35.1 µM | 401 µM | 5.76 µM | 700 µM
CCOc1cc(C(C)(C)C)ccc1C1=N[C@H](c2ccc(Cl)cc2)[C@H](c2ccc(Cl)cc2)N1C(=O)N1CCN(CC#Cc2cccc3c2CN([C@@H]2CCC(=O)NC2=O)C3=O)CC1 | 6.95 µM | > 88.9 µM | 0.165 µM | > 33.5 µM | 0.1 µM | > 43.2 µM | 1.85 µM | 14.8 µM | 2.05 µM | 22.7 µM | 0.301 µM | > 53.5 µM | 2.12 µM | > 51.6 µM | 1.32 µM | 42.8 µM | 0.673 µM | 14.7 µM | 0.023 µM | > 100 µM
O=C(/C=C/c1ccccc1)Nc1ncc(Cc2ccccc2Cl)s1 | 0.79 µM | > 100 µM | 0.477 µM | > 100 µM | 0.219 µM | 2.16 µM | > 100 µM | > 100 µM | 0.426 µM | > 100 µM | 0.237 µM | > 100 µM | 0.223 µM | 0.73 µM | 0.774 µM | > 100 µM | 0.326 µM | > 100 µM | 0.36 µM | > 100 µM
O=S(=O)(C1=CC(S(=O)(=O)c2ccccc2)CN(Cc2ccccc2)C1c1cccc2ccccc12)c1ccccc1 (stereo unspecified) | – | > 69 µM | – | > 69 µM | – | > 69 µM | – | > 69 µM | – | > 69 µM | – | > 69 µM | – | > 69 µM | – | > 69 µM | – | > 69 µM | – | > 69 µM
COc1cc(C2c3cc4c(cc3OC(C)(N3CCCC3)C2C)OCO4)cc(OC)c1OC (stereo unspecified) | – | > 62.6 µM | – | 46.7 µM | – | 0.65 µM | – | > 100 µM | – | > 31.4 µM | – | 11.3 µM | – | 2.93 µM | – | > 100 µM | – | 19.1 µM | – | > 50.3 µM
